Results as given in ChEMBL document CHEMBL4190243, “Natural alkaloids as P-gp inhibitors for multidrug resistance reversal in cancer” (Eur J Med Chem, 2017).
One block for each molecule: values may come before it.

Key:
[1] = Inhibition of P-gp in human MCF7/DX1 cells assessed as BODIPY-FL-verapamil accumulation after 30 to 40 mins by FACS analysis; format: cell-based
[2] = Inhibition of P-gp in human MCF7/DX1 cells assessed as doxorubicin accumulation after 30 to 40 mins by FACS analysis; format: cell-based
[3] = Inhibition of P-gp in human MCF7/DX1 cells assessed as […] Rh123 accumulation after 30 to 40 mins by FACS analysis; format: cell-based
[4] = Inhibition of [125I]IAAP labeling to human P-gp expressed in baculovirus infected insect cell membranes after 10 mins
[5] = Inhibition of P-gp in human MCF7/DX1 cells assessed as [3H]daunomycin accumulation after 40 mins by liquid scintillation counting method; format: cell-based
[6] = molecular target: T1, ATP-dependent translocase ABCB1 (Homo sapiens, UniProt P08183); assay: Displacement of 8-azido[alpha-32P]ATP from human MDR1 expressed in baculovirus infected insect cell membranes by phosphorimaging method
T1 sequence (P08183 whole entry): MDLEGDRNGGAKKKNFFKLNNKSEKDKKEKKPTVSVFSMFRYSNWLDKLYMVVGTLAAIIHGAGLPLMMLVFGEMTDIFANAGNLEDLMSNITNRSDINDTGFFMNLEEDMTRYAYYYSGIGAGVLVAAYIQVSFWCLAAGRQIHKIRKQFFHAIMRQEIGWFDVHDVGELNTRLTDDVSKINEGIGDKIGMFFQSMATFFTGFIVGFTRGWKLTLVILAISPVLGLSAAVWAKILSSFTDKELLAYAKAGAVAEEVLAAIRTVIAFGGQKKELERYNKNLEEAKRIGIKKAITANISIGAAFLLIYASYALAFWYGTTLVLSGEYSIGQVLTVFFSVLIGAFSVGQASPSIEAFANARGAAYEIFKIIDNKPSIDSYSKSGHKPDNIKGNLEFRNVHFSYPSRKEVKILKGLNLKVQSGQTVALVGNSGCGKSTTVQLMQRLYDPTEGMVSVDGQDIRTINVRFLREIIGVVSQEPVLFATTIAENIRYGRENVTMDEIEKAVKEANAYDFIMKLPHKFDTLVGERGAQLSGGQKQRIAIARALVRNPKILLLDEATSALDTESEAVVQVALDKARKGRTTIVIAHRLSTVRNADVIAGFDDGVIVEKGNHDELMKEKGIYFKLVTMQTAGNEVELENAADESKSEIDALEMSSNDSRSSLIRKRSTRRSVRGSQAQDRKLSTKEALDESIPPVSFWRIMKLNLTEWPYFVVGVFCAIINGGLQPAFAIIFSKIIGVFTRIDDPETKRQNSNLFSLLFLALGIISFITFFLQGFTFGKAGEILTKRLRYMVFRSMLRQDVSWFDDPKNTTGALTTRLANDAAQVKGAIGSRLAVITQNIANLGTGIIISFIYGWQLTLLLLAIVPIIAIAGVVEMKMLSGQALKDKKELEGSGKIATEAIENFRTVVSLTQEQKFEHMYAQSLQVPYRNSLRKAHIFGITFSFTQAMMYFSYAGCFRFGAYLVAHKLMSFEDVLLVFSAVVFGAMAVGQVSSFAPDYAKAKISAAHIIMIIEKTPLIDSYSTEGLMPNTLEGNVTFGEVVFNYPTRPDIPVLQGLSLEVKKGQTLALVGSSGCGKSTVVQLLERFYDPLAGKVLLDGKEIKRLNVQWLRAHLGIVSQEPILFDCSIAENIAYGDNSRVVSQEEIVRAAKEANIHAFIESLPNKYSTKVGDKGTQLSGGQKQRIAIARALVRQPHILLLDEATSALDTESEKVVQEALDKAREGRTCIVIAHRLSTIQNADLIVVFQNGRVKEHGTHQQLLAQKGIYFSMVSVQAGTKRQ

[7] = molecular target: T1, ATP-dependent translocase ABCB1; assay: Inhibition of [125I]IAAP labeling to human MDR1 expressed in baculovirus infected insect cell membranes by electrophoresis method
[8] = molecular target: T1, ATP-dependent translocase ABCB1; assay: Inhibition of human MDR1 ATPase activity expressed in baculovirus infected insect cells preincubated for 30 mins followed by ATP addition measured after 20 mins by colorimetric method
[9] = Half life in male Sprague-Dawley rat at 50 mg/kg, po by LC-MS/MS method; format: ADME, organism-based; settings: in vivo
[10] = Half life in female Sprague-Dawley rat at 50 mg/kg, po by LC-MS/MS method; format: ADME, organism-based; settings: in vivo
[11] = Terminal phase half life in healthy human at 30 mg/kg, iv by LC-MS/MS method; format: ADME, organism-based; settings: in vivo, read-out: beta t1/2 (converted)
[12] = Primary phase half life in healthy human at 30 mg/kg, iv by LC-MS/MS method; format: ADME, organism-based; settings: in vivo, read-out: alphat1/2
[13] = Cmax in male Sprague-Dawley rat at 50 mg/kg, po by LC-MS/MS method; format: ADME, organism-based; parameters: dose 50 mg/kg, route oral; settings: in vivo
[14] = test system: Rattus norvegicus; assay: AUC (0 to 72 hrs) in male Sprague-Dawley rat at 50 mg/kg, po by LC-MS/MS method; format: ADME, organism-based; parameters: dose 50 mg/kg, time < 72 hr, route oral; settings: in vivo
[15] = Potentiation of doxorubicin-induced antitumor activity against human KBv200 cells xenografted in Balb/c nude mouse assessed as tumor growth inhibition at 10 mg/kg, ip once daily for 12 days (reference value: 11.6%); format: functional; settings: 288 h, read-out: TGI
[16] = Tmax in female Sprague-Dawley rat at 50 mg/kg, po by LC-MS/MS method; format: ADME, organism-based; settings: in vivo
[17] = Tmax in male Sprague-Dawley rat at 50 mg/kg, po by LC-MS/MS method; format: ADME, organism-based; settings: in vivo
[18] = test system: Rattus norvegicus; assay: AUC (0 to 72 hrs) in female Sprague-Dawley rat at 50 mg/kg, po by LC-MS/MS method; format: ADME, organism-based; parameters: time < 72 hr, dose 50 mg/kg, route oral; settings: in vivo
[19] = Potentiation of epirubicin-induced antitumor activity against human KBv200 cells in xenograft model assessed as tumor growth inhibition at 10 mg/kg, ip (reference value: 29%); format: functional; settings: read-out: TGI
[20] = test system: Homo sapiens; assay: AUC in healthy human at 30 mg/kg, iv by LC-MS/MS method; format: ADME, organism-based; settings: in vivo
[21] = Cytotoxicity against human KBv200 cells after 72 hrs by MTT assay; format: functional, cell-based; settings: KBv200, 72 h
[22] = Cmax in female Sprague-Dawley rat at 50 mg/kg, po by LC-MS/MS method; format: ADME, organism-based; parameters: dose 50 mg/kg, route oral; settings: in vivo
[23] = molecular target: T2, Broad substrate specificity ATP-binding cassette transporter ABCG2 (Homo sapiens, UniProt Q9UNQ0); assay: Inhibition of BCRP (unknown origin)
T2 sequence (Q9UNQ0 whole entry): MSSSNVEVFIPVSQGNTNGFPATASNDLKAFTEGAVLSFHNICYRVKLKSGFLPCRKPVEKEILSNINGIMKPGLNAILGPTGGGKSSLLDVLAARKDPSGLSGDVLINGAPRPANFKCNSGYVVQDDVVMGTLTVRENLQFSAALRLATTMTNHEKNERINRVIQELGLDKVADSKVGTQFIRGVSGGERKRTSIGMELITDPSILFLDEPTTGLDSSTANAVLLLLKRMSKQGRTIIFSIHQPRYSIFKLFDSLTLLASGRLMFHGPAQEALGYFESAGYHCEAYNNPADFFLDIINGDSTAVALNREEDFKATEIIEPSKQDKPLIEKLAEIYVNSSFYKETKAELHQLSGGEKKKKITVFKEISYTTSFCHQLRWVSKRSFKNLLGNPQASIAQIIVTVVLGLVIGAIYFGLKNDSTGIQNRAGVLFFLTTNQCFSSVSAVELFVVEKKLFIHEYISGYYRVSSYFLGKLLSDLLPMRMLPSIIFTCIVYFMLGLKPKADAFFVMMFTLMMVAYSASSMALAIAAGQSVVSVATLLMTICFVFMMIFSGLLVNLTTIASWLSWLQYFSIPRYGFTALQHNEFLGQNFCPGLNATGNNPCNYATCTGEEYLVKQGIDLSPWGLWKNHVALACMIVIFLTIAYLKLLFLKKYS

[24] = Tmax in rat at 50 mg/kg, po by LC-MS/MS method; format: ADME, organism-based; settings: in vivo
[25] = test system: NCI/ADR-RES; assay: Potentiation of doxorubicin-induced antitumor activity against human MCF7/ADR cells xenografted in nude mouse assessed as tumor growth inhibition at 30 mg/kg, ip every two days (reference value: -20%); format: functional; settings: 48 h, read-out: TGI
[26] = test system: Rattus norvegicus; assay: AUC (0 to 72 hrs) in rat at 50 mg/kg, po by LC-MS/MS method; format: ADME, organism-based; parameters: time < 72 hr, dose 50 mg/kg, route oral; settings: in vivo
[27] = species on record: Homo sapiens; assay: Inhibition of P-gp in human MCF7/DOX cells assessed as potentiation of doxorubicin-induced cytotoxicity by measuring fold reduction in doxorubicin IC50 at 2.5 uM; format: cell-based
[28] = Potentiation of vincristine-induced antitumor activity against human KBv200 cells xenografted in Balb/c nude mouse assessed as tumor growth inhibition at 30 mg/kg, ip every two days (reference value: 20%); format: functional; settings: 48 h, read-out: TGI
[29] = Half life in rat at 50 mg/kg, po by LC-MS/MS method; format: ADME, organism-based; settings: in vivo
[30] = species on record: Homo sapiens; assay: Inhibition of P-gp in human MCF7/DOX cells assessed as potentiation of doxorubicin-induced cytotoxicity by measuring fold reduction in doxorubicin IC50 at 5 uM; format: cell-based
[31] = Cmax in rat at 50 mg/kg, po by LC-MS/MS method; format: ADME, organism-based; parameters: dose 50 mg/kg, route oral; settings: in vivo
[32] = Potentiation of paclitaxel-induced antitumor activity against human KBv200 cells in xenograft model assessed as tumor growth inhibition at 35 mg/kg, ip (reference value: 13%); format: functional; settings: read-out: TGI
[33] = Half life in patient with advanced stage of cancer at 500 mg/m2 by HPLC method; format: ADME, organism-based; settings: human, in vivo
[34] = test system: KB-V1; assay: Downregulation of P-gp expression in human MDR KBV1 cells after 24 hrs relative to control; format: functional
[35] = Potentiation of vinblastine-induced antitumor activity against human KB-8-5 cells xenografted in Ncr nude mouse assessed as growth inhibition at 0.13 mmol/kg by hallow fiber assay; format: functional; settings: read-out: GI
[36] = test system: KB-V1; assay: Potentiation of vinblastine-induced antitumor activity against human KBV1 cells xenografted in Ncr nude mouse assessed as growth inhibition at 0.13 mmol/kg by hallow fiber assay; format: functional; settings: read-out: GI
[37] = test system: KB-V1; assay: Potentiation of vinblastine-induced antitumor activity against human KBV1 cells xenografted in Ncr nude mouse assessed as growth inhibition at 0.136 mmol/kg by hallow fiber assay; format: functional; settings: read-out: GI
[38] = Displacement of [3H]vinblastine from P-gp in human KBV1 cell membrane vesicles; format: cell membranes
[39] = Inhibition of P-gp ATPase activity in rat AS30-D/COL10 cell plasma membrane vesicles
[40] = Inhibition of P-gp in rat AS30-D/COL10 cell plasma membrane vesicles assessed as reduction in [3H]VBL transport
[41] = test system: P388; assay: Potentiation of doxorubicin-induced antitumor activity against mouse P388/DOX25 cells implanted in mouse assessed as increase in mouse survival at 1.6 mg/kg, ip; format: functional
[42] = species on record: Homo sapiens; assay: Inhibition of P-gp in human Caco2 cells assessed as reduction in digoxin efflux at 4 uM relative to control; format: cell-based
[43] = molecular target: MRP2 (ABCC2) (Homo sapiens, UniProt Q92887); assay: Inhibition of MRP2 in human Caco2 cells assessed as reduction in pravastatin sodium efflux at 4 uM relative to control; format: cell-based; settings: Caco-2 cells, probe pravastatin sodium
Chain of MRP2 (ABCC2) (Q92887 whole entry): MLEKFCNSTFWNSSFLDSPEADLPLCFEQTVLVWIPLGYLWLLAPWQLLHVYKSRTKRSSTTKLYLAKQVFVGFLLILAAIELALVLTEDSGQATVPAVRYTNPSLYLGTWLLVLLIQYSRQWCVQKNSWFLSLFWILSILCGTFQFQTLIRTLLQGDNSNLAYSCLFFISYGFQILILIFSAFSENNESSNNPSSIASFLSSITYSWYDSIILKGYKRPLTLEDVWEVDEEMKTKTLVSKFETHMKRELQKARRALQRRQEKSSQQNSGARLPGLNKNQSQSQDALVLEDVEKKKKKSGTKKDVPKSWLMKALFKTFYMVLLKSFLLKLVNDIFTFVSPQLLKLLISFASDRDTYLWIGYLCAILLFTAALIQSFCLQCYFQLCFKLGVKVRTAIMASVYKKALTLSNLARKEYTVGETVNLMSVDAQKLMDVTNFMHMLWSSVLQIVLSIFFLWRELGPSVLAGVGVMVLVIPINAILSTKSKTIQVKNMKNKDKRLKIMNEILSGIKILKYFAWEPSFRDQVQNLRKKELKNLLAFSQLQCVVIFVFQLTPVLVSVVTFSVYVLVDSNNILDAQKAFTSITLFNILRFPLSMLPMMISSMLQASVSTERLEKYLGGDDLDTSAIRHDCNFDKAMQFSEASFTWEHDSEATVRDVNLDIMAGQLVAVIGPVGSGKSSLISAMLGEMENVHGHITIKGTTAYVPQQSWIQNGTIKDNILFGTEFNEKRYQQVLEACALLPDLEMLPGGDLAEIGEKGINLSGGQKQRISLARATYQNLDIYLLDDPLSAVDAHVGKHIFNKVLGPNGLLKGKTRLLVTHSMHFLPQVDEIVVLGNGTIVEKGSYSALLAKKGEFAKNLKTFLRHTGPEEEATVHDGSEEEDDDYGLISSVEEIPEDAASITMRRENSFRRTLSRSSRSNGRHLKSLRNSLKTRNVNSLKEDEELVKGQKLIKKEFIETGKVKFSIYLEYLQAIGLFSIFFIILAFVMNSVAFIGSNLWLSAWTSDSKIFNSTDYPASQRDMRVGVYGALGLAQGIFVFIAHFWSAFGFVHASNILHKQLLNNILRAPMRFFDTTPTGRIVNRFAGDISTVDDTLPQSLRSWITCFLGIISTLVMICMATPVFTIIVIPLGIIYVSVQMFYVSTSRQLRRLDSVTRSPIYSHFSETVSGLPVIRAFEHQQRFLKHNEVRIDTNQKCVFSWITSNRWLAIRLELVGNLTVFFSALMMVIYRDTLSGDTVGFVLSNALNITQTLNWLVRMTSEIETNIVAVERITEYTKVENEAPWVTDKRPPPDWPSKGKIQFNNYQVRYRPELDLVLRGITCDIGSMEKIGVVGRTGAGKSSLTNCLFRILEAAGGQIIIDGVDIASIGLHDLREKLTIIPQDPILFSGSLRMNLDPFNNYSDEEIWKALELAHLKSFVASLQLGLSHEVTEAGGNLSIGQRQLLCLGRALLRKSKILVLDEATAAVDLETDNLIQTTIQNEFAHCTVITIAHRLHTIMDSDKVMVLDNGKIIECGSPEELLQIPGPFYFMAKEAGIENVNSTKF

IC50 [1]: 500 to 2000 nM
IC50 [2]: 500 to 2000 nM
IC50 [3]: 800 nM
IC50 [5]: 500 to 2000 nM
SMILES: COc1ccc2c3c1O[C@@H]1C[C@H](OC(=O)CCCCCCCCC(=O)O[C@H]4C=C[C@@]56CN(C)CCc7ccc(OC)c(c75)O[C@H]6C4)C=C[C@]31CN(C)CC2
IC50 [4]: 500 nM

SMILES: Nc1ncnc2c1ncn2[C@@H]1O[C@H](COC(=O)c2ccc(S(=O)(=O)F)cc2)[C@@H](O)[C@H]1O
IC50 [6]: 680 nM
IC50 [7]: 170 nM
IC50 [8]: 210 nM

half-life [9]: 8.67 h
half-life [10]: 18.2 h
half-life [11]: 52 h
half-life [12]: 0.5 h
Cmax [13]: 607 ng/mL
AUC [14]: 6116 µg/h/L
Tmax [16]: 4.67 h
Tmax [17]: 3.67 h
AUC [18]: 21827 µg/h/L
AUC [20]: 64 µg/h/L
Cmax [22]: 835 ng/mL
SMILES: COc1ccc2cc1Oc1ccc(cc1)C[C@@H]1c3cc(c(OC)cc3CCN1C)Oc1c(OC)c(OC)c(Br)c3c1[C@H](C2)N(C)CC3
inhibition in vivo at 10 mg/kg [15]: 39%
inhibition in vivo at 10 mg/kg [19]: 48%
IC50 [21]: 2000 nM

IC50 [23]: 12600 nM
SMILES: COC(=O)[C@H]1[C@H]2C[C@@H]3c4[nH]c5cc(OC)ccc5c4CCN3C[C@H]2C[C@@H](OC(=O)c2cc(OC)c(OC)c(OC)c2)[C@@H]1OC [RESERPINE]

SMILES: COc1ccc2cc1Oc1ccc(cc1)C[C@@H]1c3cc(c(OC)cc3CCN1C)Oc1c(OC)c(OC)cc3c1[C@H](C2)N(C)CC3 [ISOTETRANDRINE]
Tmax [24]: 6 h
inhibition in vivo at 30 mg/kg [25]: 58%
AUC [26]: 6279 µg/h/L
fold change (FC) [27]: 20
inhibition in vivo at 30 mg/kg [28]: 62%
half-life [29]: 20 h
fold change (FC) [30]: 20
Cmax [31]: 237 ng/mL
inhibition in vivo at 35 mg/kg [32]: 76%
half-life [33]: 120 to 168 h

SMILES: CN[C@@H]1C[C@H]2O[C@@](C)([C@@H]1OC)n1c3ccccc3c3c4c(c5c6ccccc6n2c5c31)C(=O)NC4 [STAUROSPORINE]
Activity [34]: 50%

SMILES: COc1cc(/C=C/C(=O)OC2C(O)C3CC(OC(=O)c4cc(OC)c(OC)c(OC)c4)CC2N3C)cc(OC)c1OC (stereo not drawn)
inhibition in vivo at 130 µmol/kg [35]: ≤ 75%
inhibition in vivo at 130 µmol/kg [36]: ≤ 75%
inhibition in vivo at 136 µmol/kg [37]: ≤ 77.7%
Ki [38]: 7300 nM

SMILES: C=C[C@]1(C)C[C@@H](OC(=O)CSCCN(CC)CC)[C@]2(C)[C@H](C)CC[C@]3(CCC(=O)[C@H]32)[C@@H](C)[C@@H]1O [TIAMULIN]
IC50 [39]: 540 nM
IC50 [40]: 6200 nM
survival at 1.6 mg/kg [41]: 29%

inhibition at 4 µM [43]: > 30%
SMILES: O=C1c2ccccc2-n2c1nc1ccccc1c2=O [TRYPTANTHRIN]
inhibition [42]: > 30%
